Data: the supplement of paper PMC10307832

Tests used:
Test in all cases: relative viability (nuclei count vs DMSO), 5 days (fraction); higher = more cells survive
[1] = compound: CC1=NN=C(O1)C2=NN=C(C=C2)N3CCC(CC3)OC4=C(C=CC(=C4)F)Cl + N=C(N)NC(=N)NCCc1ccccc1 [Phenformin] (partner 250 µM)
Outline: (§1)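 One day after seeding in 1536-well plates, lung cancer cell lines were dosed by pin tool. Dosing was either single-drug or a fixed anchor-drug dose plus five library-drug doses (not always all listed) in √10 steps. After 5 days, nuclei were stained in one fix-and-stain step and counted on 4× images, and relative viability is the nuclei count of treated wells over that of vehicle wells, given as the median of duplicate plates.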

[2] = compound: CC(C)C[C@@H](C(=O)N[C@H](C(=O)OC1CCCC1)c1ccccc1)[C@H](O)C(=O)NO [Tosedostat] + CC1(C)CCC(c2ccc(Cl)cc2)=C(CN2CCN(c3ccc(C(=O)NS(=O)(=O)c4ccc(N[C@H](CCN5CCOCC5)CSc5ccccc5)c(S(=O)(=O)C(F)(F)F)c4)cc3)CC2)C1 [Navitoclax] (partner 0.5 µM)
Outline: as §1

[3] = compound: CC(C)C[C@@H](C(=O)N[C@H](C(=O)OC1CCCC1)c1ccccc1)[C@H](O)C(=O)NO [Tosedostat] + Nc1nc2[nH]cc(CCc3ccc(C(=O)N[C@@H](CCC(=O)O)C(=O)O)cc3)c2c(=O)[nH]1 [Pemetrexed] (partner 0.2 µM)
Outline: as §1

[4] = compound: CC(C)C[C@@H](C(=O)N[C@H](C(=O)OC1CCCC1)c1ccccc1)[C@H](O)C(=O)NO [Tosedostat] + CC(C)C[C@H](NC(=O)[C@H](Cc1ccccc1)NC(=O)c1cnccn1)B(O)O [Bortezomib] (partner 0.002 µM)
Outline: as §1

Row | Cell Line | relative viability ([1]; first compound 0.253 µM) | relative viability ([1]; first compound 0.8 µM) | relative viability ([1]; first compound 2.53 µM) | relative viability ([1]; first compound 8 µM) | relative viability ([2]; first compound 0.02 µM) | relative viability ([2]; first compound 0.06325 µM) | relative viability ([2]; first compound 0.2 µM) | relative viability ([2]; first compound 0.6325 µM) | relative viability ([2]; first compound 2 µM) | relative viability ([3]; first compound 0.02 µM) | relative viability ([3]; first compound 0.06325 µM) | relative viability ([3]; first compound 0.2 µM) | relative viability ([3]; first compound 0.6325 µM) | relative viability ([3]; first compound 2 µM) | relative viability ([4]; first compound 0.02 µM) | relative viability ([4]; first compound 0.06325 µM) | relative viability ([4]; first compound 0.2 µM) | relative viability ([4]; first compound 0.6325 µM) | relative viability ([4]; first compound 2 µM)
1 | 201T | 0.38 | 0.436 | 0.46 | 0.443 | 1.19 | 1.24 | 1.29 | 1.32 | 1.28 | 0.336 | 0.335 | 0.393 | 0.355 | 0.307 | 1.1 | 1.08 | 1.14 | 1.14 | 1.21
2 | A549 | 0.158 | 0.0878 | 0.14 | 0.147 | 1.37 | 1.15 | 1.14 | 1.19 | 1.01 | – | – | – | – | – | – | – | – | – | –
3 | A-427 | 0.285 | – | 0.278 | 0.258 | 0.921 | 0.925 | 0.999 | 1.03 | 0.925 | 0.97 | 1.02 | 0.936 | 0.946 | 0.852 | 1.02 | 0.916 | 1.06 | 1.01 | 0.879
4 | ABC-1 | 0.197 | 0.224 | 0.291 | 0.276 | – | – | – | – | – | – | – | – | – | – | 0.289 | 0.344 | 0.328 | 0.274 | 0.306
5 | BEN | 0.25 | 0.265 | 0.267 | 0.301 | 0.35 | 0.0546 | 0.0614 | 0.0633 | 0.0537 | 0.845 | 0.893 | 0.997 | 1.2 | 1.06 | 0.973 | 1.08 | 0.827 | 0.908 | 0.728
6 | CAL-12T | 0.585 | 0.519 | 0.488 | 0.416 | 1.27 | 1.13 | 1.19 | 1.16 | 0.965 | 1.19 | 1.3 | 1.24 | 1.26 | 1.02 | 0.987 | 0.897 | 0.966 | 0.85 | 0.549
7 | COR-L23 | 0.423 | 0.385 | 0.425 | 0.363 | 1.2 | 1.04 | 1.04 | 0.884 | 0.958 | 0.2 | 0.214 | 0.202 | 0.194 | 0.172 | 1.22 | 0.918 | 0.914 | 0.969 | 1.1
8 | COR-L 105 | 0.513 | 0.475 | 0.568 | 0.642 | 0.673 | 0.624 | 0.707 | 0.722 | 0.512 | 1.16 | 0.915 | 1.01 | 0.857 | 0.894 | 0.733 | 0.605 | 0.807 | 0.781 | 0.542
9 | Calu-6 | – | – | – | – | 0.919 | 0.787 | 0.655 | 0.668 | 0.461 | – | – | – | – | – | 1.13 | 0.932 | 0.943 | 0.851 | 0.666
10 | ChaGo-K-1 | 0.471 | 0.373 | 0.545 | 0.381 | 1.23 | 1.1 | 0.905 | 1.01 | 0.761 | 0.269 | 0.257 | 0.275 | 0.267 | 0.275 | 1.15 | 1.03 | 0.938 | 0.962 | 0.78
11 | EBC-1 | – | – | – | – | 0.42 | 0.473 | 0.423 | 0.356 | 0.305 | – | – | – | – | – | 0.538 | 0.516 | 0.505 | 0.405 | 0.334
12 | EKVX | 0.211 | 0.223 | 0.236 | 0.227 | 0.962 | 0.969 | 0.898 | 0.944 | 0.804 | 0.462 | 0.427 | 0.547 | 0.462 | 0.477 | 0.974 | 0.995 | 1.03 | 0.946 | 0.823
13 | EMC-BAC-2 | 0.594 | 0.479 | 0.495 | 0.517 | 1.11 | 1.2 | 1.15 | 1.14 | 1.19 | 0.453 | 0.463 | 0.582 | 0.626 | 0.655 | 1.13 | 1 | 1.07 | 0.944 | 0.985
14 | EPLC-272H | 0.315 | 0.279 | 0.309 | 0.294 | 1.19 | 1.3 | 0.826 | 0.775 | 0.576 | 0.47 | 0.269 | 0.306 | 0.241 | 0.142 | 1.14 | 0.826 | 0.738 | 0.67 | 0.574
15 | H3255 | 0.372 | 0.316 | 0.354 | 0.398 | 0.464 | 0.546 | 0.404 | 0.388 | 0.471 | 0.56 | 0.628 | 0.625 | 0.611 | 0.638 | 0.883 | 0.927 | 0.86 | 0.621 | 0.648
16 | HARA | 0.306 | 0.211 | 0.334 | 0.266 | 1.17 | 1.2 | 1.1 | 0.894 | 1.15 | 0.212 | 0.248 | 0.222 | 0.203 | 0.25 | 1.16 | 1.08 | 1.1 | 1.1 | 0.942
